Test results from patent publication US4200650A, “2-Amino-cyclopent-1-ene-1-thiocarboxylic acid-disulfides to treat noradrenergic malfunctions” (Richter Gedeon Vegyeszeti Gyar Rt., priority 1976, dated 1980).

Columns and labels:
dopamine-β-hydroxylase [1] = test: Determination of noradrenaline and dopamine levels of brain (dopamine-β-hydroxylase inhibiting effect); assay type: in vivo, male Wistar rats; conditions: i.p.
Method: (§1) The dopamine-β-hydroxylase inhibiting effects of the new compounds according to the invention were examined by the following tests:
(§2) The tests were performed on male Wistar rats weighing 150 to 200 g. The dopamine-β-hydroxylase inhibiting effects of the compounds were evaluated by determining the change of noradrenaline, dopamine and adrenaline levels of the cerebrum, heart, spleen and adrenal gland. The serotonine and 5-hydroxy-indolylacetic acid levels of the cerebrum were also determined. The measurements were performed as follows:
(§3) The animals were decapitated, the cerebrum, heart, spleen and adrenal gland were removed quickly, and the organs were frozen by placing them onto a metal sheet cooled with dry ice. The frozen organs were stored for maximum one night at -20° C.
(§4) Determination of the noradrenaline, dopamine, serotonine and 5-hydroxy-indolylacetic acid contents of brain
The brains were homogenized in 10 parts by volume of 0.4 n perchloric acid. The homogenized mixture was stored at -20° C. overnight, thereafter it was thawed and centrifuged as described above. A sample of the homogenized mixture corresponding to 0.5 g of brain was removed, the pH of the sample was adjusted to 8.0±0.1 with 0.1 molar tris-buffer of the above composition, and the sample was processed as described above for the determination of the noradrenaline content of heart and spleen, with the difference that 1.5 ml of 0.05 n perchloric acid were applied as eluting agent. 0.5 ml of the eluate were applied to determine the noradrenaline and dopamine contents. The measurement was performed as described above, with the difference that samples of 0.5 ml were applied for the recording of the fluorescency of noradrenaline. The residua was placed for 50 minutes into a drying oven heated to 100° C., thereafter the sample was cooled with ice water, and the fluorescency of dopamine was recorded at wavelengths of 325 nm (excitation) and 380 nm (emission).
(§5) In a further test series the serotonine and 5-hydroxy-indolylacetic acid contents were also determined, beside the determination of the noradrenaline and dopamine content, from the same sample. In this instance the brains were homogenized in 10 ml of 75% ethanol, 0.2 ml of EDTA-Na2 and 5% of ascorbic acid were added to the homogenized mixtures, and the homogenized mixtures were maintained at -20° C. overnight. The mixtures were centrifuged as described above, and 5.0 ml samples of the supernatant were removed. The samples were diluted with equal volumes of distilled water, and poured onto ion exchange columns of 0.5×1.5 cm dimensions, filled with buffered Amberlite CG-30 (200 to 400 mesh). The columns were washed with 5 ml of distilled water followed by 1.0 ml of 0.2 n hydrochloric acid, and the first effluent and the aqueous wash were collected for the determination of 5-hydroxy-indolylacetic acid. Elution was continued with further 1.2 ml of 0.2 n hydrochloric acid in order to remove noradrenaline, dopamine and serotonine. Samples of 0.3 ml were used for the determinations.
(§6) Noradrenaline and dopamine were determined by the method of Shellenberger, modified as described above, whereas serotonine was determined by the method of Curzon et al. (Brit. J. Pharmacol. 39, 653/1970/). The basic method was modified as follows: A 0.5% solution of ortho-phthal(di)aldehyde in absolute ethanol was diluted with 10 n hydrochloric acid to 50-fold of its original volume, and 0.6 ml of the resulting 0.01% ortho-phthal(di)aldehyde solution were added immediately to 0.5 ml of the serotonine-containing sample. The sample was placed into a hot water bath for 10 minutes, thereafter cooled with tap water, and the fluorescency was recorded at wavelengths of 360 nm (excitation) and 490 nm (emission).
In the tests disulfiram, 2,2-dipyridyl, bis(1-methyl-4-homopiperazinyl-thriocaronyl)-disulfide, sodium diethyldithiocarbamate and N-phenyl-N'-(2-thiazolyl)-thiourea were applied as reference substances. […]

[2] = tested on: serotonine and 5-hydroxy-indolylacetic acid levels of the cerebrum; test: Determination of serotonine and 5-hydroxy-indolylacetic acid levels of brain; assay type: in vivo, male Wistar rats
Method: as §2, §3, §4, §5, §6
5-Hydroxy-indolylacetic acid was determined from the mixture of the first effluent and the aqueous wash. 10 ml of distilled water and 0.2 ml of concentrated hydrochloric acid were added to the mixture, and the sample was poured onto a 0.8×4.0 cm column filled with Sephadex G-10. The column was washed with 15 ml of 0.1 n hydrochloric acid followed by 1.8 to 2.0 ml of 0.02 n aqueous ammonia, and then 5-hydroxyindolylacetic acid was eluted with further 2.0 ml of aqueous ammonia. 0.5 ml samples were used in the measurements, and the determination was performed according to the method of Korf et al. (Biochem. Pharmacol. 20, 659/1971/).
(§7) In the tests disulfiram, 2,2-dipyridyl, bis(1-methyl-4-homopiperazinyl-thriocaronyl)-disulfide, sodium diethyldithiocarbamate and N-phenyl-N'-(2-thiazolyl)-thiourea were applied as reference substances. The values indicated in Table 1 are the percentages in relation to the amine levels of the controls measured in the same tests (± standard error). The statistical calculations were performed on a TPA/i type computer, using Student's t test.

dopamine-β-hydroxylase [3] = test: Determination of the noradrenaline content of heart; assay type: in vivo, male Wistar rats; conditions: i.p.
Method: as §1, §2, §3
(§8) Determination of the noradrenaline content of heart and spleen
(§9) The organs were weighed in frozen state and then homogenized in 5.0 ml of 0.4 n perchloric acid containing 0.05% of EDTA-Naa and 0.1% of Na2 S2 O5. The homogenized mixtures were centrifuged as described above for the treatment of adrenal gland, the supernatants were decanted, and the pH was adjusted to 8.0±0.1 with a 0.1 molar tris buffer containing 20 g/l of NaOH and 25 g/l of EDTA-Na2. 100 mg of prepared Al2 O3 (Anton et al.: J. Pharm. Ther. 138, 360/1962/) were added to the samples, and the mixtures were shaken mechanically for 20 minutes. Thereafter Al2 O3 was washed with 2×10 ml of distilled water, and noradrenaline was eluted with 1.0 ml of 0.05 n perchloric acid. 0.5 ml samples of the eluate were applied for the determination of noradrenaline. Noradrenaline was determined according to the method of Shellenberger et al. (Anal. Biochem. 39, 356/1971/), with the following modifications of the basic procedure: 0.5 ml of 0.1 molar Na-K-phosphate buffer, containing 9 g/l of EDTA-Na2, were added to 0.5 ml of the eluate, and the catecholamines (noradrenaline in the examination of heart and spleen and noradrenaline and dopamine in the examination of the cerebrum) were oxidized with 0.1 ml of a 0.1 n iodine solution in 5% potassium iodide. After exactly 2 minutes oxidation was stopped by adding 0.25 ml of a 2.5% sodium sulfite solution in 4.4 n aqueous sodium hydroxide to the mixture. 2 minutes after the introduction of the alkaline sulfite solution 0.2 ml of concentrated acetic acid were added to the samples, upon which the pH decreased to 4.4 to 4.5 Thereafter the samples were placed for 5 minutes into a drying oven heated to 100° C., and then the samples were cooled with ice water. The fluorescency of noradrenaline was measured with an OPTON spectrophotometer at wavelengths of 380 nm (excitation) and 490 nm (emission).
as §7

dopamine-β-hydroxylase [4] = test: Determination of the noradrenaline content of spleen; assay type: in vivo, male Wistar rats; conditions: i.p.
Method: as §1, §2, §3, §8, §9, §7

dopamine-β-hydroxylase [5] = test: Determination of the adrenaline content of adrenal gland; assay type: in vivo, male Wistar rats; conditions: i.p.
Method: as §1, §2, §3
Determination of the adrenaline content of adrenal gland
The adrenal glands were freed from fat and homogenized in 3.0 ml of ice-cold 0.4 n perchloric acid. The homogenized mixtures were centrifuged for 10 minutes at 0° C. with a speed of 3200 r.p.m. using a Janetzky K-70 type centrifuge. 0.05 ml samples were taken from the supernatant, and the adrenaline level was determined directly by the method of Laverty et al. (Anal. Biochem. 22, 269/1968/).
as §7

dopamine-β-hydroxylase [6] = conditions: literature, cited from earlier work
[7] = 100 mg/kg, 4 hours, ± standard error
[8] = 200 mg/kg, 4 hours, ± standard error
[9] = 200 mg/kg, 8 hours, ± standard error
[10] = i.p., 200 mg/kg, 4 hours, ± standard error

Compound: c1ccc(-c2ccccn2)nc1 [2,2-D, 2,2-dipyridyl, reference compound]
- Brain DA (dopamine) level, percentages in relation to the controls (dopamine-β-hydroxylase [1]; 37.5 mg/kg, 4 hours): 116%
- Brain NA (noradrenaline) level, percentages in relation to the controls (dopamine-β-hydroxylase [1]; 37.5 mg/kg, 4 hours): 79.5%
- Brain DA (dopamine) level, percentages in relation to the controls (dopamine-β-hydroxylase [1]; 75 mg/kg, 4 hours): 95%
- Brain NA (noradrenaline) level, percentages in relation to the controls (dopamine-β-hydroxylase [1]; 75 mg/kg, 4 hours): 41.2%
- Brain SE (serotonine) level, percentages in relation to the controls ([2]; i.p., 75 mg/kg, 4 hours): 100%
- Heart NA (noradrenaline) level, percentages in relation to the controls (dopamine-β-hydroxylase [3]; 37.5 mg/kg, 4 hours): 104%
- Heart NA (noradrenaline) level, percentages in relation to the controls (dopamine-β-hydroxylase [3]; 75 mg/kg, 4 hours): 58%
- Spleen NA (noradrenaline) level, percentages in relation to the controls (dopamine-β-hydroxylase [4]; 37.5 mg/kg, 4 hours): 100%
- Adrenal gland AD (adrenaline) level, percentages in relation to the controls (dopamine-β-hydroxylase [5]; 37.5 mg/kg, 4 hours): 80%
- Adrenal gland AD (adrenaline) level, percentages in relation to the controls (dopamine-β-hydroxylase [5]; 75 mg/kg, 4 hours): 63%
- dopamine-β-hydroxylase inhibition under in vitro conditions, in words (dopamine-β-hydroxylase [6]; in vitro): effective under in vitro conditions

Compound: CCCCNC1=C(C(=S)SSC(=S)C2=C(NCCCC)CCC2)CCC1 [Compound M-2, 2-(N-butyl)-amino-cyclopent-1-ene-thiocarboxylic aciddisulfide]
- Brain DA (dopamine) level, percentages in relation to the controls (dopamine-β-hydroxylase [1]; [7]): 118.3±5.7%
- Brain NA (noradrenaline) level, percentages in relation to the controls (dopamine-β-hydroxylase [1]; [7]): 80.1±4.3%
- Brain DA (dopamine) level, percentages in relation to the controls (dopamine-β-hydroxylase [1]; [8]): 94.2±7.5%
- Brain NA (noradrenaline) level, percentages in relation to the controls (dopamine-β-hydroxylase [1]; [8]): 70.9±5.2%
- Brain DA (dopamine) level, percentages in relation to the controls (dopamine-β-hydroxylase [1]; [9]): 91.0±12.7%
- Brain NA (noradrenaline) level, percentages in relation to the controls (dopamine-β-hydroxylase [1]; [9]): 81.6±7.3%
- response vs control in vivo at 200 mg/kg ([2]; Rattus norvegicus, ip, 200 mg/kg, 8 hours, ± standard error, read-out: Brain 5-HIAA (5-hydroxy-indolylacetic acid) level, percentages in relation to the controls): 126 ± 7.1%
- Heart NA (noradrenaline) level, percentages in relation to the controls (dopamine-β-hydroxylase [3]; [7]): 91.5±5.2%
- Heart NA (noradrenaline) level, percentages in relation to the controls (dopamine-β-hydroxylase [3]; [8]): 108.5±9.4%
- Heart NA (noradrenaline) level, percentages in relation to the controls (dopamine-β-hydroxylase [3]; [9]): 91.7±4.6%
- Spleen NA (noradrenaline) level, percentages in relation to the controls (dopamine-β-hydroxylase [4]; [8]): 114.5±28.2%
- Spleen NA (noradrenaline) level, percentages in relation to the controls (dopamine-β-hydroxylase [4]; [9]): 96.4±23.1%
- Adrenal gland AD (adrenaline) level, percentages in relation to the controls (dopamine-β-hydroxylase [5]; [7]): 81.0±8.5%
- Adrenal gland AD (adrenaline) level, percentages in relation to the controls (dopamine-β-hydroxylase [5]; [8]): 91.7±4.3%
- Adrenal gland AD (adrenaline) level, percentages in relation to the controls (dopamine-β-hydroxylase [5]; [9]): 87.7±4.2%

Compound: S=C(Nc1ccccc1)Nc1nccs1 [Compound U-14624, N-phenyl-N'-(2-thiazolyl)-thiourea, reference compound]
- Brain DA (dopamine) level, percentages in relation to the controls (dopamine-β-hydroxylase [1]; [8]): 121%
- Brain NA (noradrenaline) level, percentages in relation to the controls (dopamine-β-hydroxylase [1]; [8]): 31.6%
- Brain 5-HIAA (5-hydroxy-indolylacetic acid) level, percentages in relation to the controls [2, 10]: 175%
- Brain SE (serotonine) level, percentages in relation to the controls [2, 10]: 137%
- Heart NA (noradrenaline) level, percentages in relation to the controls (dopamine-β-hydroxylase [3]; [8]): 106%
- Spleen NA (noradrenaline) level, percentages in relation to the controls (dopamine-β-hydroxylase [4]; [8]): 111%
- Adrenal gland AD (adrenaline) level, percentages in relation to the controls (dopamine-β-hydroxylase [5]; [8]): 72%

Compound: CCN(CC)C(=S)SSC(=S)N(CC)CC [DS, bis(diethylthiocarbamoyl)-disulfide, reference compound]
- Brain DA (dopamine) level, percentages in relation to the controls (dopamine-β-hydroxylase [1]; [8]): 111%
- Brain NA (noradrenaline) level, percentages in relation to the controls (dopamine-β-hydroxylase [1]; [8]): 22.5%
- Brain DA (dopamine) level, percentages in relation to the controls (dopamine-β-hydroxylase [1]; 400 mg/kg, 4 hours): 112%
- Brain NA (noradrenaline) level, percentages in relation to the controls (dopamine-β-hydroxylase [1]; 400 mg/kg, 4 hours): 24.1%
- Brain SE (serotonine) level, percentages in relation to the controls [2, 10]: 122%
- Brain SE (serotonine) level, percentages in relation to the controls ([2]; i.p., 400 mg/kg, 4 hours): 117%
- Heart NA (noradrenaline) level, percentages in relation to the controls (dopamine-β-hydroxylase [3]; [8]): 98%
- Heart NA (noradrenaline) level, percentages in relation to the controls (dopamine-β-hydroxylase [3]; 400 mg/kg, 4 hours): 102%
- Adrenal gland AD (adrenaline) level, percentages in relation to the controls (dopamine-β-hydroxylase [5]; [8]): 52%
- Adrenal gland AD (adrenaline) level, percentages in relation to the controls (dopamine-β-hydroxylase [5]; 400 mg/kg, 4 hours): 66%
- dopamine-β-hydroxylase inhibiting effects, in words (dopamine-β-hydroxylase [6]): strong dopamine-β-hydroxylase inhibiting effects
